The text below walks through data of article PMC3517478 (BMC Neurology, 2012).

Substitutions are numbered along the chain they refer to.

Assay [1] deals with T1, human α1R271K-GlyR expressed in HEK 293 cells (Homo sapiens, UniProt P23415, R299K).
T1 sequence (P23415 29-457 R299K): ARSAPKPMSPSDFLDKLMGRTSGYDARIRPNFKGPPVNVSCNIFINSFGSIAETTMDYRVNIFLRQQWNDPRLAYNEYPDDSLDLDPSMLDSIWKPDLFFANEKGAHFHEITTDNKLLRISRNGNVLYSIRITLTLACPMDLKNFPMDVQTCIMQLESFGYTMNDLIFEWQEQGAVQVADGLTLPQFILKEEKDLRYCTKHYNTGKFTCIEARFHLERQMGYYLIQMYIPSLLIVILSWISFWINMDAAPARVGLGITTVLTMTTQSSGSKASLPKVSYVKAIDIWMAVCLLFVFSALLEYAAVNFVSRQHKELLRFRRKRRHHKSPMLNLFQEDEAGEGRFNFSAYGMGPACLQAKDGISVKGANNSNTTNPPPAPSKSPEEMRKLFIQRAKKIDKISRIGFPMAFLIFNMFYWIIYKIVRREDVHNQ
Briefly: Whole-cell patch-clamp, direct activation in the absence of glycine. The format is cell-based. Further details: expressed in transfected cells; host or cells: HEK 293 (transient, electroporation; pcDNA1amp vector). Particulars: R271K. As for the experimental part:
(§1) Drug-containing vials were vigorously vortexed for 30min.
(§2) A new cell was used for each protocol and at least four different experiments were performed for each condition. The concentration of the diluent EtOH corresponding to the highest drug concentration used was 17150 μM.
(§3) Currents were filtered at 2 kHz.
A general note: The patch-clamp technique gives a direct electrical read-out from membranes.

The target in assay [2] is T2, human α1R271L-GlyR expressed in HEK 293 cells (Homo sapiens, UniProt P23415, R299L).
T2 sequence (P23415 29-457 R299L): T1 sequence (P23415 29-457 R299K) with K271L
The description is as above. In kind it is cell-based. Further details: expressed in transfected cells; host or cells: HEK 293 (transient, electroporation; pcDNA1amp vector). The following applies: R271L, 0.01-1000 μM. How it is done:
as §1, §2, §3

Assay [3] deals with T3, human α1S267I-GlyR expressed in HEK 293 cells (Homo sapiens, UniProt P23415, S295I).
T3 sequence (P23415 29-457 S295I): T1 sequence (P23415 29-457 R299K) with S267I, K271R
Described as above. In kind it is cell-based. Further details: expressed in transfected cells; host or cells: HEK 293 (transient, electroporation; pcDNA1amp vector). The following applies: S267I, 0.01-1000 μM. As for the experimental part: as §1, §2, §3

Assay [4] concerns the target T4, human α1-GlyR (WT) expressed in HEK 293 cells (Homo sapiens, UniProt P23415).
T4 sequence (P23415 29-457): T1 sequence (P23415 29-457 R299K) with K271R
Briefly: Whole-cell patch-clamp, positive allosteric modulation of glycine (EC20) induced currents. The format is cell-based. More on the design: expressed in transfected cells; host or cells: HEK 293 (transient, electroporation; pCIS2 vector; co-transfected EGFP as a separate marker). How it is done: as §1, §2, §3
Currents were normalized to their own maximum response.

For a further assay, the system named is rat alpha 1 GlyR. Particulars: rat alpha 1 GlyR in HEK293; cited from earlier work.
The test system of assay [5] is human alpha1 glycine receptor. The following applies: human alpha1 glycine receptors in HEK293; cited from earlier work.

For the compound “4-chloro-2,6-dimethylphenol [4-chloropropofol]”, the “direct activation nH” value in assay [1] was found to be 0.41 ± 0.15. In assay [1], the “mean maximal activation (direct)” value amounted to 77.2 ± 4.2%. Moreover, the EC50 – broadly, the concentration that produces a half-maximal response – in assay [1] (0.01-1000 μM, n = 5) is 16.4 ± 22.3 µM; in assay [4] (WT, co-applied with sub-saturating (EC20) glycine 20 μM, read-out: positive allosteric modulation EC50 ± SEM) it was 0.08 ± 0.02 nM. For the same compound, the direct activation result in assay [2] and in assay [3] was “completely insensitive” each time. Besides, the “increased potency to positively modulate glycine induced chloride currents in comparison to propofol” value in assay [4] (WT glycine receptors, propofol value from ref 21) is on record as “more than 1000 fold”. Further, in assay [4] (WT, EC20 glycine 20 μM), the “positive allosteric modulation nH ± SEM” value was 2.0 ± 2.8. Moreover, in assay [4] (WT, maximal positive allosteric modulation, EC20 glycine 20 μM), the “positive allosteric modulation, potentiation [% of peak current amplitude] ± SEM” value amounted to 269 ± 88%.
Consider `NCC(=O)O` [glycine], for which the “Hill slope nH” value is 3.3 with rat alpha 1 GlyR and 2.4 in assay [5].
